Laboratory results published in US11083714B2, “Selective anti-cancer agent effective for prevention and treatment” (Molecular International Research, Inc., priority 2018, dated 2021).

Experiments:
PANC-1 tumors = test: Orthotopic PANC-1 luciferase tumors in nude mice; format: in vivo
Text: FIG. 16. Animal Study. PANC-1 cells with luciferase gene were orthotopically implanted into the pancreas of nude mice and the tumors were monitored by live-animal imaging. Longitudinal tumor growth shown by quantification of all images in the treated group (lozenges, n=9) and the untreated group (squares, n=10). Tumor burden is represented by average total photon flux (top) and its log transform (bottom).
Human PANC-1 pancreatic cancer cells were transfected with the luciferase gene to enable imaging in vivo. These cells were transplanted into the pancreas of nude mice and, after 10 days, tumors were established in the mice and they were treated with de-ethylflavopereirine by oral gavage. Longitudinal tumor progress was followed by live-animal imaging. The results of this experiment are depicted in FIGS. 16 to 21.

[1] = Toxicity in mice, intravenous administration; format: in vivo; details: 20 mg/kg and 40 mg/kg
Protocol: At 20 mg/kg and 40 mg/kg doses, intravenous administration of compound 13-9-1 in mice was well-tolerated. The 20 mg/kg dose provides sufficient serum concentration for the compound to exert its anti-tumor effect.
Oral administration was chosen for the mouse experiments because administration is simplified by avoiding the need for tail vein injections.

[2] = tested on: glioblastoma cell lines U-87MG, DBTRG-05MG, A172; test: Glioblastoma cell viability and proliferation assay (ATP); format: cell-based; details: 3 nM to 30 uM, 72 hr
Protocol: FIG. 9. Glioblastoma in vitro cell viability and proliferation assay after treatment with de-ethylflavopereirine. Glioblastoma cell lines U-87MG, DBTRG-05MG, A172, and AM-38 were tested. Temozolomide, an oral chemotherapy drug known to treat some brain cancers, was used as a control. The concentrations of temozolomide (circles) or compound 13-9-1 (squares) used were 3 nM, 10 nM, 30 nM, 100 nM, 1 uM, 3 uM, 10 uM, and 30 uM. Each of the cell lines was treated with de-ethylflavopereirine for 72 hr before measuring cytotoxicity and inhibition of cell proliferation. Number of viable cells in culture based on quantitation of ATP. IC50 was determined as indicated below each graph.
The dose-response curves for the anti-brain cancer drug temozolomide are shown for comparison.

PANC-1 cells = test: Spheroid formation (cancer stem cells); format: cell-based
Protocol: FIG. 22. PANC-1 cell suspensions were treated at concentrations of 0 μM (negative control), 2.5 μM, 5.0 μM, and 10.0 μM de-ethylflavopereirine then examined for the presence of spheroids.
FIG. 23. Primary spheroids from first round were collected and seeded for secondary spheroid formation. Following treatment with concentrations of 0 μM (negative control), 2.5 μM, 5.0 μM, and 10.0 μM de-ethylflavopereirine, suspensions were examined.
In vitro, cancer stem cells form spheroids: clusters of cancer cells surrounding a cancer stem cell. Inhibition of spheroid formation is a test for anti-cancer stem cell activity of a compound.

HT-29 tumors = test: Subcutaneous HT-29 colon cancer xenografts; format: in vivo; details: for toxicity and deaths of tumor-bearing mice: mouse, in vivo; for TUNEL staining of tumor sections: tumors removed after treatment
Protocol: FIG. 30. Effect of de-ethylflavopereirine on HT-29 colon cancer tumor volume. Nude mice with subcutaneous xenografts of human HT-29 colon cancer cells were grouped as untreated control (squares), administered compound 13-9-1 (triangles), or administered IFL as conventional chemotherapy regimen (circles). IFL is a combination of irinotecan, fluorouracil, and leucovorin often used for treatment of colorectal cancer. […] Animals were treated for two and a half weeks.
FIGS. 31 to 33 show TUNEL staining of HT-29 tumors removed from untreated mice (control) in FIG. 31, mice administered de-ethylflavopereirine in FIG. 32, or mice administered IFL in FIG. 33. […] After treatments were concluded, tumors were removed from the animals, fixed, thin sectioned, and stained by the TUNEL method to identify cells undergoing apoptosis. In FIG. 31, the borders of tumors from control animals show intact tissue and the absence of TUNEL staining. […] The color images clearly distinguish the dark purple/brown color of cells undergoing apoptotis from the blue color of intact tumor cells.
In this example, the anti-tumor activity of de-ethylflavopereirine was compared with the activity of IFL (a combination of irinotecan, fluorouracil, and leucovorin). IFL has been routinely used in the treatment of colorectal cancer, but is associated with significant toxicity. The toxicity is so severe that some have encapsulated irinotecan in liposomes to reduce negative side effects.
A comparison of the direct impact of de-ethylflavopereirine and IFL on tumors is depicted in FIGS. 32 and 33. Terminal deoxynucleotidyl transferase dUTP nick-end labeling (TUNEL) is a method for detecting DNA fragmentation by labeling the 3′-hydroxyl termini in the double-strand DNA breaks generated during apoptosis. Tumor sections from the two groups and an untreated control group were immunostained by the TUNEL method to specifically identify cells undergoing apoptosis.

PANC-1, MIA PaCa, BxPc = test: Apoptosis by flow cytometry in pancreatic cancer cell lines; format: cell-based; details: 10 μM and 20 μM
Protocol: FIG. 11. De-ethylflavopereirine induces apoptosis in pancreatic cancer cell lines PANC-1 (top), MIA PaCa (middle), and BxPc (bottom). Following exposure of cells to de-ethylflavopereirine at concentrations of 0.5 μM, 10 μM, and 20 μM, flow cytometry was used to assess the percentage of cells undergoing early apoptosis (clear), late apoptosis (dark), or necrosis (stipple). […] Values are mean±SEM (n=3). *p≤0.05 compared with control group using Student's t-test; **p≤0.01 compared with control group using Student's t-test.

β-catenin = β-catenin localization in PANC-1 cells (Wnt signaling); format: cell-based
Text: FIG. 28. Effect of de-ethylflavopereirine on β-catenin localization in the nucleus of PANC-1 cells. […] Cytoplasmic β-catenin levels were not affected under these conditions. Vinculin provided a marker for a cytoplasmic protein that is present in very low amounts in the nucleus.
Wnt pathway activation involves translocation of β-catenin from the cytoplasm into the nucleus and subsequent changes in transcription of targeted genes. Suppression of Wnt activation occurs when the translocation of β-catenin into the nucleus is suppressed. […] So de-ethylflavopereirine inhibits the growth of pancreatic cancer stem cells in part because it specifically suppresses Wnt signaling.

Structure (SMILES): c1ccc2c(c1)[nH]c1c2cc[n+]2ccccc12 [Compound 13-9-1, 12H-indolo[2,3-a]quinolizin-5-ium]
- body weight compared with untreated control group (PANC-1 tumors; day 0 through day 40): indistinguishable
- mice whose tumors were completely abolished (PANC-1 tumors; oral gavage): 22%
- anti-tumor effect by tumor burden (total photon flux) (PANC-1 tumors; oral gavage, treated (n=9) vs untreated (n=10)): significant
- mice whose tumors were completely abolished (number of animals) (PANC-1 tumors; oral gavage, listed as de-ethylflavopereirine): 2/9 and two of 21
- examination of internal organs (PANC-1 tumors; treated vs untreated): failed to reveal any toxic effects
- final tumor weights at necropsy (PANC-1 tumors; treated vs untreated): statistically significant reduction
- metastatic lesions at necropsy (PANC-1 tumors; treated vs untreated): reduced
- tolerability of intravenous administration [1]: well-tolerated
- glioblastoma cell viability [2]: dose-dependent decrease in glioblastoma cell viability
- secondary spheroid formation (PANC-1 cells; 2.5 μM): significant inhibition
- primary spheroid formation (PANC-1 cells; 5 μM and 10 μM): significantly inhibited primary spheroid formation
- secondary spheroid formation (PANC-1 cells; 5 μM and 10 μM): completely inhibited
- toxicity and deaths of tumor-bearing mice (HT-29 tumors): did not have toxic effects on the mice
- toxicity and deaths of tumor-bearing mice (HT-29 tumors; nude, 2.5 weeks): No animals treated with compound 13-9-1 died
- HT-29 tumor volume (HT-29 tumors; treated for two and a half weeks): reduced HT-29 tumor volumes
- TUNEL staining of tumor sections (HT-29 tumors): apoptosis in zones near the periphery of the tumors
- TUNEL staining of tumor sections (HT-29 tumors; listed as de-ethylflavopereirine): cells on the periphery were undergoing apoptosis
- induction of apoptosis (PANC-1, MIA PaCa, BxPc): induction is dose dependent
- induction of apoptosis (PANC-1, MIA PaCa, BxPc; listed as De-ethylflavopereirine): Early apoptosis is the predominant result
- cytoplasmic β-catenin levels (β-catenin; 24 and 48 hr): not affected
- β-catenin levels in the nucleus (β-catenin; 24 hr post-treatment): no effect
- β-catenin levels in the nucleus (β-catenin; 48 hr post-treatment): significantly reduced
